Values joined by “and” are separate entries in the source; they are usually repeats but may differ in a detail not shown here. Equal values may be shown once. Read-outs that look alike come from different tables or passages of the source. Values belong to the compound of their own block, whether it stands above or below them.
Assays:
[1] = target: T1, human FAAH (Homo sapiens, UniProt O00519); test: FAAH charcoal filter-plate assay with 3H-anandamide in T84 membranes; type: biochemical; conditions: for IC50 values (in words): product inhibition
T1 construct: T84 frozen pellets were homogenized in FAAH assay buffer; endogenous in cells; host or cells: T84 human colorectal carcinoma cells (ATCC CCL-248), homogenate/membranes
T1 sequence (O00519 1-579): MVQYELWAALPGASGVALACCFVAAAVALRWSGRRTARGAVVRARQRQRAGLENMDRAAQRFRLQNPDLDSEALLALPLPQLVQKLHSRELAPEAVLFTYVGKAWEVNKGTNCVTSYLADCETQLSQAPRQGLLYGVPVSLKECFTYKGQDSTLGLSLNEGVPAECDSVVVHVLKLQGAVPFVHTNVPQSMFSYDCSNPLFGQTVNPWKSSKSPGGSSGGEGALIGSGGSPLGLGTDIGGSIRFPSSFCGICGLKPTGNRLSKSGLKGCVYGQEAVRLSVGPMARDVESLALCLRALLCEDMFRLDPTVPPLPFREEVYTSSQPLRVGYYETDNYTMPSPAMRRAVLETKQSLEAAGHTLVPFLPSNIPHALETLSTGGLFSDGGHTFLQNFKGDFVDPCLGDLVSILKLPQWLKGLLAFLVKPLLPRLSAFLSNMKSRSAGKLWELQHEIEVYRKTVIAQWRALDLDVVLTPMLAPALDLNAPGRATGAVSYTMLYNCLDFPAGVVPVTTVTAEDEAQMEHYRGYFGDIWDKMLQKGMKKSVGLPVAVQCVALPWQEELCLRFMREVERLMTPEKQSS

[2] = target: T2, FAAH (Mus musculus, UniProt O08914); conditions: cited from earlier work
T2 construct: it abolished anandamide hydrolysis in N18 mouse neuroblastoma cells; host or cells: N18 mouse neuroblastoma cells
T2 sequence (O08914 1-579): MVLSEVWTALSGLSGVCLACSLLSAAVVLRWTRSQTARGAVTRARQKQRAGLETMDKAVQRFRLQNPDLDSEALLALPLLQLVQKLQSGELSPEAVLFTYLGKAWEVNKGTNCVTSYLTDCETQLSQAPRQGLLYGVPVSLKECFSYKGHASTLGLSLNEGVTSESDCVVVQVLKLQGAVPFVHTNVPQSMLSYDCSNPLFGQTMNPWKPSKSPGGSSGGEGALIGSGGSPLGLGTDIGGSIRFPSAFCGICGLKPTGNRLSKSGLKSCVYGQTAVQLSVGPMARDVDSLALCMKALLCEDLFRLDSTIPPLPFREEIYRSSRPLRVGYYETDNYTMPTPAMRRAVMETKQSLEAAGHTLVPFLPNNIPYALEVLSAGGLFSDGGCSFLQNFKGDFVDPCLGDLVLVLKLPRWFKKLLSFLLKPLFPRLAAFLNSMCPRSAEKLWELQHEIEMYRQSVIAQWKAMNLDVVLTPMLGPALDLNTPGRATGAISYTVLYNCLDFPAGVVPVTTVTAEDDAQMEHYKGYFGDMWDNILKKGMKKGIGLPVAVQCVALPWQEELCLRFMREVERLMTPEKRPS

[3] = target: T3, FAAH (Rattus norvegicus, UniProt P97612); conditions: cited from earlier work
T3 sequence (P97612 1-579): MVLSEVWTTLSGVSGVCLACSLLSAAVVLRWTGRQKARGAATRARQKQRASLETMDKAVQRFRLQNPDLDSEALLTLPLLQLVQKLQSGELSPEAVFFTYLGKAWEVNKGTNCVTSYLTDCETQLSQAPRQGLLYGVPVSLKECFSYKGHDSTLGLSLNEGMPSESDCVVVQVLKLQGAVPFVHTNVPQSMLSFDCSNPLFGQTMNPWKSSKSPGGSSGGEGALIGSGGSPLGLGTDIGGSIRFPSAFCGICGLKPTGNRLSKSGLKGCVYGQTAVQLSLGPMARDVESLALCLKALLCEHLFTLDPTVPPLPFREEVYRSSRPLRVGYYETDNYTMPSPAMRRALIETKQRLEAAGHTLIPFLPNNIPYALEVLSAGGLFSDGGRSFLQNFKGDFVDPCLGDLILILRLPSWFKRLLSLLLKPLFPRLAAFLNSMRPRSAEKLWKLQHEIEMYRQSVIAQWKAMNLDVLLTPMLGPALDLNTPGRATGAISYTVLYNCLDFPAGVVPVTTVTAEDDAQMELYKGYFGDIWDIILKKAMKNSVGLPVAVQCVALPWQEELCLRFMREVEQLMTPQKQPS

[4] = target: T3, FAAH; parameters: other: literature data; conditions: read-out: Literature (ref) IC50; cited from earlier work
[5] = target: FAAH (Homo sapiens, UniProt O00519); conditions: human brain; Maccarrone et al. 1999; cited from earlier work
[6] = T84 membranes, room temperature 60 min, average ± S.E. of 2-5 experiments, each in triplicate, read-out: IC50

- IC50 values (in words) ([1]; T84 membranes): low micromolar range
- IC50 [1, 6]: 0.931 ± 0.255 µM
SMILES: CCCCC/C=C\C/C=C\C/C=C\C/C=C\CCCC(=O)O [Arachidonic acid]

SMILES: O=S(=O)(F)Cc1ccccc1 [Phenylmethylsulfonyl fluoride]
- anandamide hydrolysis in N18 mouse neuroblastoma cells ([2]; at a concentration of 100 μM, Maurelli et al. 1995): abolished
- inhibition of the hydrolysis of rat brain microsomal anandamide ([3]; at 25 μM, Desarnaud et al. 1995): 48%
- IC50 [4]: 1.2 to 69 µM
- IC50 ([1]; IC50): 16 µM

SMILES: CCCCCCCC/C=C\CCCCCCCCC(=O)C(F)(F)F [Oleyl trifluoromethyl ketone, oleyl trifluoromethyl ketone]
- IC50 [4]: 0.039 µM and 0.024 to 0.041 µM

SMILES: CCCCC/C=C\C/C=C\C/C=C\C/C=C\CCCC(=O)NCCO [anandamide, N-arachidonoylethanolamine]
- Km [2]: 9 µM
- activity of FAAH [2]: abolished
- Km [3]: 12.7 µM
- Km [5]: 2 µM
- Km ([1]; read-out: Km of hydrolysis by FAAH): 1.1 ± 0.17 µM

- IC50 values (in words) ([1]; T84 membranes): low micromolar range
- IC50 [1, 6]: 1.94 ± 0.401 µM
SMILES: CCCCCCCC/C=C\CCCCCCCC(=O)O [Oleic acid]
